From PubChem BioAssay (NCI)
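Each compound was tested at five concentrations against cells in 96-well plates for 48 hours. Here, GI50 denotes the concentration required for 50% inhibition of growth. TGI is the concentration that stops growth completely.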

What was measured:
Experiment in all cases: growth of human tumour cells (NCI), 48 h
UACC-62 melanoma = test system: UACC-62 melanoma
A498 renal = test system: A498 renal
T-47D breast = test system: T-47D breast
OVCAR-5 ovarian = test system: OVCAR-5 ovarian
HOP-92 NSCLC = test system: HOP-92 NSCLC
HS 578T breast = test system: HS 578T breast
U251 CNS = test system: U251 CNS
PC-3 prostate = test system: PC-3 prostate
NCI-H460 lung = test system: NCI-H460 lung
OVCAR-4 ovarian = test system: OVCAR-4 ovarian

SMILES	GI50 (UACC-62 melanoma)	TGI (UACC-62 melanoma)	GI50 (A498 renal)	TGI (A498 renal)	GI50 (T-47D breast)	TGI (T-47D breast)	GI50 (OVCAR-5 ovarian)	TGI (OVCAR-5 ovarian)	GI50 (HOP-92 NSCLC)	TGI (HOP-92 NSCLC)	GI50 (HS 578T breast)	TGI (HS 578T breast)	GI50 (U251 CNS)	TGI (U251 CNS)	GI50 (PC-3 prostate)	TGI (PC-3 prostate)	GI50 (NCI-H460 lung)	TGI (NCI-H460 lung)	GI50 (OVCAR-4 ovarian)	TGI (OVCAR-4 ovarian)
O=C(Nc1ccc(-n2cc(-c3ccncc3)c(-c3ccc(O)c(Cl)c3)n2)cc1)c1cc(Cl)cc(Cl)c1	3.01 µM	> 32.5 µM	> 32.5 µM	> 32.5 µM	18.6 µM	> 32.5 µM	> 32.5 µM	> 32.5 µM	1.28 µM	> 32.5 µM	0.939 µM	6.52 µM	1.32 µM	> 32.5 µM	1.96 µM	> 32.5 µM	2 µM	> 32.5 µM	2.56 µM	> 32.5 µM
N#Cc1ccc(/C=N/NC(=O)CSCC(=O)N/N=C/c2ccc(C#N)cc2)cc1	–	> 100 µM	–	> 100 µM	–	> 100 µM	–	> 100 µM	–	> 100 µM	–	> 100 µM	–	> 100 µM	–	> 100 µM	–	> 100 µM	–	> 100 µM
Cc1ccc2ccc(=O)oc2c1	–	> 100 µM	–	> 100 µM	–	> 100 µM	–	> 100 µM	–	> 100 µM	–	> 100 µM	–	> 100 µM	–	> 100 µM	–	> 100 µM	–	> 100 µM
NC(Cc1ccccc1)=NCC(=O)O	–	> 100 µM	–	> 100 µM	–	> 100 µM	–	> 100 µM	–	> 100 µM	–	> 100 µM	–	> 100 µM	–	> 100 µM	–	> 100 µM	–	> 100 µM
Cc1ccc(C(=O)Cc2nc3ncccc3[nH]c2=O)cc1	–	> 100 µM	–	> 100 µM	–	> 100 µM	–	> 100 µM	–	48.1 µM	–	71.3 µM	–	52.7 µM	–	> 100 µM	–	> 100 µM	–	84 µM
OC12C3C4CC5C(C4[C@@H]1Br)C2[C@@](O)(c1c(F)c(F)c(F)c(F)c1F)C53 (stereo not given in full)	–	> 100 µM	–	> 100 µM	–	> 100 µM	–	> 100 µM	–	68.7 µM	–	97.5 µM	–	> 100 µM	–	94.4 µM	–	> 100 µM	–	> 100 µM
CCC(C)NC(=S)N/N=C(\C)c1ccccn1 (stereo not given)	–	> 30 µM	–	> 26 µM	–	41.7 µM	–	> 100 µM	–	0.668 µM	–	> 100 µM	–	> 100 µM	–	> 100 µM	–	> 100 µM	–	> 100 µM
O=C(O)CCC(C(=O)O)N1C(=O)c2ccccc2C1=O (stereo not given)	–	> 100 µM	–	> 100 µM	–	> 100 µM	–	> 100 µM	–	> 100 µM	–	> 100 µM	–	> 100 µM	–	> 100 µM	–	> 100 µM	–	> 100 µM
Cc1c(C)c2c(c(N)c1C#N)C(=O)N(OS(=O)(=O)c1ccccc1)C2=O	–	61.4 µM	–	> 100 µM	–	20 µM	–	> 100 µM	–	35.2 µM	–	> 100 µM	–	49.5 µM	–	> 100 µM	–	> 100 µM	–	41.3 µM
COc1ccc(/C=C2\Sc3nnc(C)n3N=C2c2cc(F)c(Cl)cc2Cl)cc1OC	–	33.4 µM	–	37.1 µM	–	> 100 µM	–	31.2 µM	–	28.6 µM	–	> 100 µM	–	30.2 µM	–	37.7 µM	–	53.1 µM	–	28.8 µM
O=c1[nH]nc(Cc2ccccc2)n1/N=C/c1ccc([N+](=O)[O-])o1	–	4.56 µM	–	23.1 µM	–	79.1 µM	–	26.1 µM	–	30.1 µM	–	7.29 µM	–	16.3 µM	–	20.9 µM	–	> 100 µM	–	24.4 µM
Cc1c(NC(=S)N/N=C\C(=N/NC(=S)Nc2c(C)n(C)n(-c3ccccc3)c2=O)c2ccccc2)c(=O)n(-c2ccccc2)n1C	–	> 100 µM	–	> 100 µM	–	> 100 µM	–	> 100 µM	–	> 100 µM	–	> 100 µM	–	> 100 µM	–	> 100 µM	–	> 100 µM	–	> 100 µM
COC(=O)c1ccc(CCC2=CC(=O)C(Br)=CC2=O)cc1	–	31.7 µM	–	36.5 µM	–	70.9 µM	–	33.6 µM	–	11.9 µM	–	45 µM	–	32.5 µM	–	30.9 µM	–	34.5 µM	–	30.9 µM
